Laboratory results taken from BindingDB's records for doi:10.1016/S0960-894X(00)80696-4 (1993).
Square brackets hold non-standard residues; d marks the D form. Peptide text beside a SMILES is read from it. Cha = N[C@@H](CC1CCCCC1)C(=O)O; Ahx = NCCCCCC(=O)O

Biological target: Neuropeptide Y receptor type 2 (Oryctolagus cuniculus)
Test: Compound was evaluated for its inhibitory activity against Y2 receptor of rabbit kidney membrane

Row | SMILES | IC50 [µM]
1 | CC[C@H](C)[C@H](NC(=O)[C@H](Cc1ccc(O)cc1)NC(=O)[C@H](Cc1c[nH]cn1)NC(=O)[C@H](CCCN=C(N)N)NC(C)=O)C(=O)N[C@@H](CC(N)=O)C(=O)N[C@@H](CC1CCCCC1)C(=O)N[C@H](C(=O)N[C@H](C(=O)N[C@@H](CCCN=C(N)N)C(=O)N[C@@H](CCC(N)=O)C(=O)N[C@@H](CCCN=C(N)N)C(=O)N[C@@H](Cc1ccc(O)cc1)C(=O)O)[C@@H](C)O)[C@@H](C)CC [Ac-RHYIN-(Cha)-ITRQRY] (Ac-RHYIN[Cha]ITRQRY-OH) | 0.016
2 | CC[C@H](C)[C@H](NC(=O)[C@H](Cc1ccc(O)cc1)NC(=O)[C@H](Cc1c[nH]cn1)NC(=O)[C@H](CCCN=C(N)N)NC(C)=O)C(=O)N[C@@H](CC(N)=O)C(=O)N[C@@H](CC1CCCCC1)C(=O)N[C@@H](CC1CCCCC1)C(=O)N[C@H](C(=O)N[C@@H](CCCN=C(N)N)C(=O)N[C@@H](CCC(N)=O)C(=O)N[C@@H](CCCN=C(N)N)C(=O)N[C@@H](Cc1ccc(O)cc1)C(=O)O)[C@@H](C)O [Ac-RHYIN-(Cha)-(Cha)-TRQRY] (Ac-RHYIN[Cha][Cha]TRQRY-OH) | 0.008
3 | CC[C@H](C)[C@H](NC(=O)[C@H](Cc1ccc(O)cc1)NC(=O)[C@H](Cc1cnc[nH]1)NC(=O)[C@H](CCCNC(=N)N)NC(=O)CCCCCNC(=O)[C@H](CCCCN)NC(=O)[C@H](CO)NC(=O)[C@@H]1CCCN1C(=O)[C@@H](N)Cc1ccc(O)cc1)C(=O)N[C@@H](CC(N)=O)C(=O)N[C@@H](CC(C)C)C(=O)N[C@H](C(=O)N[C@H](C(=O)N[C@@H](CCCNC(=N)N)C(=O)N[C@@H](CCC(N)=O)C(=O)N[C@@H](CCCNC(=N)N)C(=O)N[C@@H](Cc1ccc(O)cc1)C(N)=O)[C@@H](C)O)[C@@H](C)CC [Neuropeptide Y analogue] (H-YPSK[Ahx]RHYINLITRQRY-NH2) | 0.18
